The record followed here is US10899737B2, “Piperazine carbamates and methods of making and using same” (Lundbeck La Jolla Research Center, Inc., priority 2016, dated 2021).

For assay [1], the target named is T1, ABHD6 (Mus musculus, UniProt Q8R2Y0).
T1 construct: Proteomes (mouse brain membrane fraction or cell lysates); from tissue; host or cells: mouse brain membrane fraction or cell lysates
T1 sequence (Q8R2Y0 1-336): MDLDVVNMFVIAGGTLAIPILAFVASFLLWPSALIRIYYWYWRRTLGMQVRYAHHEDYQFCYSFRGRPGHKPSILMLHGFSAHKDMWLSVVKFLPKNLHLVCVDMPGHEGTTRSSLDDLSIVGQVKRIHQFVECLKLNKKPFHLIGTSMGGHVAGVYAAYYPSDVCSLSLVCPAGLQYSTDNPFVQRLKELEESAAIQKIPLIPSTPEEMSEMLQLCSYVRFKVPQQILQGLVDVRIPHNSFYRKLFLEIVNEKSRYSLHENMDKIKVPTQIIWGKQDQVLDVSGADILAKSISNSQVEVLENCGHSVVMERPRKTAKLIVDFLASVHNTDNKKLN
Put plainly: In vitro competitive activity-based protein profiling (mouse), ABHD6. As to conditions: 1 μM inhibitor, mouse brain membrane fraction or cell lysates; read-out: ABHD6 % inh. 1 μM (mouse). The class given is biochemical. The method in brief:
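Mouse brain membrane proteome or cell lysate (1.0 mg/mL protein) preincubated 30 min at 37 °C with inhibitor, then labelled 30 min at 37 °C with FP-rhodamine probe. Remaining MAGL and ABHD6 activity quantified by in-gel fluorescence band intensity after SDS-PAGE; values are % inhibition at 1 μM.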

Assay [2] has as its target T2, ABHD6 (Homo sapiens, UniProt Q9BV23).
T2 construct: Proteomes (human prefrontal cortex or cell membrane fractions); endogenous in cells; human prefrontal cortex
T2 sequence (Q9BV23 1-337): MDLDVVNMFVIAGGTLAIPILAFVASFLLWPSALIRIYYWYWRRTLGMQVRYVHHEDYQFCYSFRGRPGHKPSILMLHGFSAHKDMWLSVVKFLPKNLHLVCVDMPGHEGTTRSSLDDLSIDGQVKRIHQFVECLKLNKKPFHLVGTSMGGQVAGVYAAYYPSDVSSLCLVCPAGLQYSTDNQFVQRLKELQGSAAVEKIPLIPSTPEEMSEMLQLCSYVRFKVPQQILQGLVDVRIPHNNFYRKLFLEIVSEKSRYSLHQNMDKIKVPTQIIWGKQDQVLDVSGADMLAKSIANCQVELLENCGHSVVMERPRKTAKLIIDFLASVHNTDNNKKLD
The assay can be described thus: In vitro competitive activity-based protein profiling (human), ABHD6. The class given is biochemical. As to conditions: human PC3. The method in brief:
(§1)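 Human prefrontal cortex or cell membrane proteomes (1.0-2.0 mg/mL protein) preincubated 30 min at 37° C with inhibitor, then labeled 30 min RT with FP-Rh or JW912 probe. After SDS-PAGE, activity taken from fluorescent band intensity for each enzyme.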

In assay [3] the target is T3, MAGL (Mus musculus, UniProt O35678).
T3 construct: Proteomes (mouse brain membrane fraction or cell lysates); from tissue; host or cells: mouse brain membrane fraction or cell lysates
T3 sequence (O35678 1-303): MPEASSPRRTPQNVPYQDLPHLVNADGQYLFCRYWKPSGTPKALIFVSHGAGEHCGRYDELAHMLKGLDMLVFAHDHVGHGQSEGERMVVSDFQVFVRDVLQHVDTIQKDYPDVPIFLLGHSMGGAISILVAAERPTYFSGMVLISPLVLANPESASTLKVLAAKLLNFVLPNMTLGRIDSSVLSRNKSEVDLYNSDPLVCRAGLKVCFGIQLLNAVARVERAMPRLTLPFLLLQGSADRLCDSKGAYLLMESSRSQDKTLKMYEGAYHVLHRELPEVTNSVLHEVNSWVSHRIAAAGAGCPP
Put plainly: In vitro competitive activity-based protein profiling (mouse), MAGL. The class given is biochemical. As to conditions: for inhibition at 1 µM: 1 μM inhibitor, mouse brain membrane fraction or cell lysates, read-out: MAGL % inh. 1 μM (mouse); for IC50: mouse proteome. Put shortly:
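Mouse brain membrane fraction or cell lysate proteomes (50 μL, 1.0 mg/mL total protein) were preincubated with inhibitors at varying concentrations for 30 min at 37° C. FP-Rh (1.0 μL, 50 μM in DMSO) was then added for a further 30 min at 37° C. Samples were quenched with 4× SDS loading buffer and resolved by SDS-PAGE. MAGL activity was quantified from fluorescent gel band intensity using ImageJ 1.49 k.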

Assay [4] deals with T3, MAGL. Put plainly: Mouse brain proteomes from inhibitor treated mice, MAGL inhibition. The format is in vivo. Conditions: 5 mg/kg oral gavage, C57Bl/6J mouse brain, 4 h following administration; read-out: MAGL % inh. 5 mg/kg (mouse). How it is done:
Preparation of Mouse Brain Proteomes from Inhibitor Treated Mice.
Inhibitors were administered to wild-type C57Bl/6J by oral gavage in a vehicle of polyethylene glycol. Each animal was sacrificed 4 h following administration and brain proteomes were prepared and analyzed according to previously established methods (See Niphakis, M. J., et al. (2011) ACS Chem. Neurosci. and Long, J. Z., et al. Nat. Chem. Biol. 5:37-44).

Assay [5] deals with T4, MAGL (Homo sapiens, UniProt Q99685).
T4 construct: Proteomes (human prefrontal cortex or cell membrane fractions); from tissue
T4 sequence (Q99685 1-303): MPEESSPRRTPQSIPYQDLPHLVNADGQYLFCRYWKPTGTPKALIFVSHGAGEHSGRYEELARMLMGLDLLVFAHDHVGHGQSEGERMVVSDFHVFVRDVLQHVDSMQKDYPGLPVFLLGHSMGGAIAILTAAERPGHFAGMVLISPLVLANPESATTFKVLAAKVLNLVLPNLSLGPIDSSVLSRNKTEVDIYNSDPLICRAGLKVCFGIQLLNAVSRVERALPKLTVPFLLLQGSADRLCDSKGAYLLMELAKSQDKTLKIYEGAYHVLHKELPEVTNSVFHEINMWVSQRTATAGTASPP
Put plainly: In vitro competitive activity-based protein profiling (human), MAGL. The format is biochemical. As to conditions: for inhibition at 1 µM: 1 μM inhibitor, human proteome, 30 min preincubation at 37° C, read-out: MAGL % inh. 1 μM (human); for IC50: human PC3. Put shortly: as §1

Take `Cc1cc(C(=O)O)sc1-c1cc(C(F)(F)F)ccc1CN1CCN(C(=O)OC(C(F)(F)F)C(F)(F)F)CC1` [Example 9, 5-(2-((4-(((1,1,1,3,3,3-Hexafluoropropan-2-yl)oxy)carbonyl)piperazin-1-yl)methyl)-5-(trifluoromethyl)phenyl)-4-methylthiophene-2-carboxylic Acid]: the inhibition at 1 µM was 50 to 75% at ABHD6 [1], not below 75% on MAGL [3] and not below 75% at MAGL [5]. Besides, the figures for the IC50 on ABHD6 [2] and on MAGL [5] were 1 to 10 µM and not above 0.1 µM, respectively. The inhibition at 5 mg/kg on MAGL [4] fell in the range of 25 to 50%.
On to `O=C(OC(C(F)(F)F)C(F)(F)F)N1CCN(Cc2ccc(C(F)(F)F)cc2C2(C(=O)O)CCOCC2)CC1` [Example 45, 4-(2-((4-(((1,1,1,3,3,3-hexafluoropropan-2-yl)oxy)carbonyl)piperazin-1-yl)methyl)-5-(trifluoromethyl)phenyl)tetrahydro-2H-pyran-4-carboxylic acid], for which the inhibition at 1 µM on ABHD6 [1] was 0 to 25%; on MAGL [3], not below 75%; on MAGL [5], not below 75%. In addition, the results for the IC50 at ABHD6 [2] and on MAGL [5] were 1 to 10 µM and not above 0.1 µM, respectively. Besides, the inhibition at 5 mg/kg on MAGL [4] was not below 75%.
Take `O=C(O)CN1CCC2(C1)CN(c1cc(C(F)(F)F)ccc1CN1CCN(C(=O)OC(C(F)(F)F)C(F)(F)F)CC1)C2` [Example 23, 2-(2-(2-((4-(((1,1,1,3,3,3-Hexafluoropropan-2-yl)oxy)carbonyl)piperazin-1-yl)methyl)-5-(trifluoromethyl)phenyl)-2,6-diazaspiro[3.4]octan-6-yl)acetic Acid]: the inhibition at 1 µM at ABHD6 [1] was 0 to 25%; at MAGL [3], not below 75%; at MAGL [5] it was not below 75%. The IC50 at ABHD6 [2] is 1 to 10 µM; at MAGL [5] it was not above 0.1 µM. The inhibition at 5 mg/kg on MAGL [4] lay in the range of 0 to 25%.
`CC1(NCC(=O)O)CCN(c2cc(C(F)(F)F)ccc2CN2CCN(C(=O)OC(C(F)(F)F)C(F)(F)F)CC2)CC1` [Example 51, (1-(2-((4-(((1,1,1,3,3,3-hexafluoropropan-2-yl)oxy)carbonyl)piperazin-1-yl)methyl)-5-(trifluoromethyl)phenyl)-4-methylpiperidin-4-yl)glycine]: the values for the inhibition at 1 µM at ABHD6 [1], on MAGL [3] and on MAGL [5] were 0 to 25%, not below 75% and not below 75%, respectively. The results for the half-maximal inhibitory concentration (IC50) on ABHD6 [2] and on MAGL [5] were 1 to 10 µM and not above 0.1 µM, respectively. On MAGL [4], the inhibition at 5 mg/kg is 0 to 25%.
For `O=C(O)CN1CC2CC1CN2c1cc(C(F)(F)F)ccc1CN1CCN(C(=O)OC(C(F)(F)F)C(F)(F)F)CC1` (centres unmarked) [Example 25, 2-(5-(2-((4-(((1,1,1,3,3,3-Hexafluoropropan-2-yl)oxy)carbonyl)piperazin-1-yl)methyl)-5-(trifluoromethyl)phenyl)-2,5-diazabicyclo[2.2.1]heptan-2-yl)acetic Acid], the figures for the inhibition at 1 µM on ABHD6 [1], at MAGL [3] and on MAGL [5] were 0 to 25%, not below 75% and not below 75%, respectively. Also, the IC50 at ABHD6 [2] is 1 to 10 µM; at MAGL [5] it was not above 0.1 µM. For the same compound, the inhibition at 5 mg/kg on MAGL [4] lay within 0 to 25%.
In the case of `O=C(O)[C@@H]1CC(c2cc(C(F)(F)F)ccc2CN2CCN(C(=O)OC(C(F)(F)F)C(F)(F)F)CC2)CN1` (stereo partly drawn) [Example 7, (2S)-4-(2-((4-(((1,1,1,3,3,3-Hexafluoropropan-2-yl)oxy)carbonyl)piperazin-1-yl)methyl)-5-(trifluoromethyl)phenyl)pyrrolidine-2-carboxylic Acid], the values for the inhibition at 1 µM on ABHD6 [1], on MAGL [3] and at MAGL [5] were 25 to 50%, not below 75% and not below 75%, respectively. Also, the values for the IC50 at ABHD6 [2] and at MAGL [5] were 1 to 10 µM and not above 0.1 µM, respectively. The inhibition at 5 mg/kg at MAGL [4] is 25 to 50%.
Turning to `O=C(O)CN1CCC(c2cc(C(F)(F)F)ccc2CN2CCN(C(=O)OC(C(F)(F)F)C(F)(F)F)CC2)CC1` [Example 31, 2-(4-(2-((4-(((1,1,1,3,3,3-Hexafluoropropan-2-yl)oxy)carbonyl)piperazin-1-yl)methyl)-5-(trifluoromethyl)phenyl)piperidin-1-yl)acetic Acid], the inhibition at 1 µM on ABHD6 [1] is 0 to 25%; on MAGL [3], not below 75%; at MAGL [5] it was not below 75%. For the same compound, the values for the IC50 at ABHD6 [2] and on MAGL [5] were 1 to 10 µM and 0.1 to 1 µM, respectively. In addition, the inhibition at 5 mg/kg on MAGL [4] was in the range of 0 to 25%.
With `O=C(O)Cn1cc(-c2cc(C(F)(F)F)ccc2CN2CCN(C(=O)OC(C(F)(F)F)C(F)(F)F)CC2)cn1` [Example 6, 2-(4-(2-((4-(((1,1,1,3,3,3-Hexafluoropropan-2-yl)oxy)carbonyl)piperazin-1-yl)methyl)-5-(trifluoromethyl)phenyl)-1H-pyrazol-1-yl)acetic Acid], the inhibition at 1 µM on ABHD6 [1], at MAGL [3] and on MAGL [5] was not below 75% in each case. For the same compound, the IC50 on ABHD6 [2] is 1 to 10 µM; at MAGL [3], not above 0.1 µM; at MAGL [5] it was not above 0.1 µM. For the same compound, at MAGL [4], the inhibition at 5 mg/kg lay in the range of 0 to 25%.
Take `CC1(C(=O)O)CN(c2cc(C(F)(F)F)ccc2CN2CCN(C(=O)OC(C(F)(F)F)C(F)(F)F)CC2)CCO1` (centres unmarked) [Example 57, 4-{2-[(4-{[(1,1,1,3,3,3-hexafluoropropan-2-yl)oxy]carbonyl}piperazin-1-yl)methyl]-5-(trifluoromethyl)phenyl}-2-methylmorpholine-2-carboxylic acid]: the inhibition at 1 µM on ABHD6 [1] was 0 to 25%; at MAGL [3], not below 75%; on MAGL [5], not below 75%. Moreover, the figures for the half-inhibitory concentration (IC50) at ABHD6 [2], on MAGL [3] and at MAGL [5] were 1 to 10 µM, not above 0.1 µM and not above 0.1 µM, respectively. At MAGL [4], the inhibition at 5 mg/kg lay in the range of 0 to 25%.
For the compound `O=C(O)CN1CCC(c2cc(C(F)(F)F)ccc2CN2CCN(C(=O)OC(C(F)(F)F)C(F)(F)F)CC2)C1` (centres unmarked) [Example 2, 2-(3-(2-((4-(((1,1,1,3,3,3-Hexafluoropropan-2-yl)oxy)carbonyl)piperazin-1-yl)methyl)-5-(trifluoromethyl)phenyl)pyrrolidin-1-yl)acetic Acid], the inhibition at 1 µM was 0 to 25% at ABHD6 [1], not below 75% at MAGL [3] and not below 75% at MAGL [5]. Also, the 50% inhibitory concentration (IC50) was 1 to 10 µM at ABHD6 [2] and not above 0.1 µM on MAGL [5]. Also, the inhibition at 5 mg/kg at MAGL [4] was 50 to 75%.

Broadly, the IC50 is the midpoint of a concentration-inhibition curve. High values mean weaker potency in that assay, low ones greater potency in that assay.
